Patent US7786129B2, “Piperazine derivatives of dialkyl oxindoles” (Egis Gyogyszergyar Nyrt, priority 2004, dated 2010)
Structures can show the parent of a compound that is named as a salt. Marks after values point to notes of the source that are not given here.

Key:
Male Wistar rats = test: Vogel's drinking conflict test; format: in vivo; conditions: ip, 0.5 h, rat, i.p. 30 min prior to test, increase in tolerated shocks, read-out: MED
Method: (§1) The anxiolytic effect of the compounds according to the invention was investigated on rats according to Vogel's drinking conflict test and elevated plus-maze test (S. Pelow, P. Chopin, S. E. File, J. Briley: Neurosci. Methods 14, p. 149 (1985)).
Male Wistar rats weighing 160-180 g were used for the experiment. The animals were deprived of drinking water for 48 hours and fasted for 24 hours prior to test. The test compounds or vehicle were administered intraperitoneally, 30 min prior to test. […] Following every 20 licks electric shocks (0.7 mA) were applied through the drinking spout during the 5 min test period. The number of punished licks were recorded. The effect of the test compounds was expressed as % increase in numbers of tolerated shocks. Minimal effective doses (MED) were determined for each compound.

Male Sprague-Dawley rats = test: Elevated plus-maze test in rats; format: in vivo; conditions: minimal effective dose, rat, p.o., 60 min after treatment, time in or entries into open arms
Text: as §1
A wooden cross elevated to 50 cm above the floor, 15 cm wide with 100 cm long arms was used for the experiments. The sides and ends of two opposite arms of the cross were equipped with 40 cm high walls, however, the arms were open to the 15×15 cm central area (closed arms). The two other opposite arms were not encircled by walls (open arms).
Male Sprague-Dawley rats weighing 200-220 g were used for the experiments. The animals were placed in the central area of the equipment 60 min after treatment and the following four parameters have been observed for the 5 min test time: • time spent in the open arms (sec), • time spent in the closed arms (see), • number of entries into the open arms, • number of entries into the closed arms.
The effect was expressed as percent increase in either the time spent in the open arms or number of entries into the open arms. MEDs (minimal effective doses) were determined for each compound.

5-HT1A receptor = biological target: T1, 5-HT1A receptor (Rattus norvegicus, UniProt P19327); test: 5-HT1A receptor binding; conditions: rat frontal cortex preparation, ligand tritiated 8-OH-DPAT
T1 construct: from tissue; host or cells: rat frontal cortex membrane preparation
T1 sequence (P19327 1-422): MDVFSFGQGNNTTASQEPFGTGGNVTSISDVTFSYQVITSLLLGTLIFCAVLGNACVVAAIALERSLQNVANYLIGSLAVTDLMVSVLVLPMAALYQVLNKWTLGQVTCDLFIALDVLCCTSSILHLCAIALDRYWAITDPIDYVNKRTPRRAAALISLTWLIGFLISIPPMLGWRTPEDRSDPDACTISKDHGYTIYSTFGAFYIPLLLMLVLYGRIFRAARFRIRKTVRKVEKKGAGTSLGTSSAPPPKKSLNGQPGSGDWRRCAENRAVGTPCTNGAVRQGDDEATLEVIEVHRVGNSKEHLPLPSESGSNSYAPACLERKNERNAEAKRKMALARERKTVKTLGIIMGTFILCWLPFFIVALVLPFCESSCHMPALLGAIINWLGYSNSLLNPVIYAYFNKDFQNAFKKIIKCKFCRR
Method: (§2) Receptor bindings—with the exception of the 5-HT2C receptor binding—were determined by using cerebral region preparations of male Wistar rats weighing 120-200 g. For the preparation of 5-HT1A receptor binding frontal cortex preparations were used. The al receptor binding studies were performed from isolated frontal cortex pre-parations. For the 5-HT2C receptor binding experiments choroid plexus of pigs was used. The protein contents of membrane preparations were determined by the method of Lowry (1951).
5-HT1A receptor binding was measured according to the method of Peroutka (Peroutka, S. J.: J. Neurochem. 47, p. 529 (1986)). The ligand was tritiated 8-hydroxy-N,N-dipropyl-2-aminotetraline (8-OH-DPAT). For the determination of non-specific binding 10 μM serotonin was applied. Incubation […] volume was 250 μl. Incubation was carried out at a temperature of 25 C for 30 minutes. The reaction was terminated by the addition of 9 ml of ice-cold 50 mM TRIS-HCl (pH 7.7) buffer and quick vacuum filtration using Whatman GFIB fibreglass filtering paper. Radioactivity of the filter boards was measured by liquid scintillation spectrometry.
(§3) The IC50 value is the value of concentration where the difference between total and non-specific binding is 50% in the presence of a determined concentration of a specific ligand.

Male Mongolian gerbils = test: Neuroprotective effect in global ischemia test (bilateral carotid occlusion); format: in vivo, Mongolian gerbil; conditions: gerbil; for Effect (%): change of CA1 cell loss score vs. control, 30 mg/kg i.p.; for CA1 cell loss (score): 30 mg/kg i.p. 45 min after surgery, scored 4 days after surgery on 6-point scale
Method: Male Mongolian gerbils weighing 60-90 g were used as test animals. The test compounds were administered intraperitoneally at a dose of 30 mg/kg 45 min after surgery. Test substances were suspended in 0.4% methylcellulose solution. In diethylether narcosis, the right and left common carotid arteries were exposed through an anterior midline cervical incision and isolated from the vagus nerves and the surrounding tissues. Full arrest of carotid blood flow was achieved by tightening an aneurysm clip for 3 min. During surgery the body temperature of the animals was kept at the individual preoperative level (37.5±0.5° C.) with the help of a heating pad and a heating lamp.
4 days after the surgery the animals were anaesthetized with 60 mg/kg i.p nembutal (10 ml/kg) and perfused through the heart first with saline then with a fixative solution containing 0.1% glutaraldehyde, 4% paraformaldehyde and 0.2% picric acid in 0.1 M phosphate buffer (pH 7.4) for 30 min. The brain was removed from the skull and post fixed for at least 1 week at 4° C. in the same fixative solution.
Alternate coronal sections of 60 μm thickness were cut from different levels of the dorsal hippocampus by a microtome. The sections were repeatedly washed in 0.1 M phosphate buffer (pH 7.4) and stained by silver impregnation. The sections were stored twice in a preparatory solution (2% sodium hydroxide and 0.875% ammonium hydroxide solution) for 5 minutes, impregnated for 10 minutes in 0.875% ammonium hydroxide and 0.5% silver nitrate solution) and placed into a washing solution (0.5% sodium carbonate and 0.01% ammonium nitrate dissolved in a 29.1% aqueous ethanol solution) twice for 2 minutes and once for one minute. The slices were then developed in 9.9% ethanol solution containing 1.5% formaldehyde and 0.01% ammonium nitrate and fixed three times for 3 minutes in a 0.5% acetic acid solution. The stained slices were placed in 0.1M phosphate buffer (pH 7.4) and chrome gelatine, applied on plates, dehydrated and treated with xylol. The cover plates were fixed with DPX glue (Fluka).
The sections were examined under light microscopy and the overall neuronal damage in the hippocampal CA1 subfield in both hippocampi was scored on a 6-point scale: (O) undamaged, (1)—0-10%; (2)—10-30%; (3)—30-50%; (4)—50-70%; (5)—70-90%; (6)—90-100% cell loss. Group differences between drug-treated and vehicle-treated groups were statistically analysed by Mann-Whitney U-test.

[1] = test system: dopamine release in the internal ear of guinea pig; test: Dopamine release in the internal ear (cochlear preparations, oxygen and glucose deprivation); conditions: guinea pig cochlear preparation, second stimulation after oxygen and glucose deprivation, FIG. 1
Method: The study of the effect on the hearing impairment and tinnitus were performed in guinea pigs weighing 145-375 g (Toxicoop, Hungary) according to the method of Gáboiján et al. (Gáboiján, A., Lendvai, B, Vizi, E. S.: Neuroscience 90, p. 131 (1999)). The dopamine release in the internal ear, as a correlate of hearing impairment, was measured in samples from cochlear preparations (lateral olivocochlear efferents) with high-pressure liquid chromatography (HPLC). The samples were collected in every 3 minutes during 60 minutes (20 fractions). Electric field stimulation was generally applied during the 3rd and 13th fraction (S1, S2, 2 Hz, 360 shocks, 60 V; Grass Medical Instruments). In the respective experiments ischemia (oxygen and glucose deprivation, OGD) was mimicked by the perfusion of a buffer saturated with 100% N2 and containing sacharose instead of glucose. Results are expressed as a percent of dopamine release per fraction. Statistical analysis was performed by analysis of variance (ANOVA) followed by Tukey test.
From the thus-obtained results the effect of the compound of Example 76 on the dopamine release in the internal ear of guinea pig is shown (FIG. 1). The initial stimulation (SI) evoked considerable dopamine release. […] This effect can be interpreted as an inhibition of hearing impairment.

α1 receptor = α1 receptor binding experiment; conditions: rat isolated frontal cortex preparation, ligand 3H-prazosine 0.3 nM
Method: as §2
(§4) In the course of 5-HT2C and α1 receptor binding experiments the ligands were ^3H-mesulergin (1.0 nM) and ^3H-prazosine (0.3 nM), respectively. The non-specifically binding ligands were mianserine (1 μM and prazosine (1 μM), respectively.
as §3

5-HT2C receptor = biological target: T2, 5-HT2C receptor (Sus scrofa, UniProt K7GSR7); test: 5-HT2C receptor binding; design: species or system pig; conditions: choroid plexus of pigs, ligand 3H-mesulergin 1.0 nM
T2 construct: from tissue; host or cells: pig choroid plexus membrane preparation
T2 sequence (K7GSR7 1-457): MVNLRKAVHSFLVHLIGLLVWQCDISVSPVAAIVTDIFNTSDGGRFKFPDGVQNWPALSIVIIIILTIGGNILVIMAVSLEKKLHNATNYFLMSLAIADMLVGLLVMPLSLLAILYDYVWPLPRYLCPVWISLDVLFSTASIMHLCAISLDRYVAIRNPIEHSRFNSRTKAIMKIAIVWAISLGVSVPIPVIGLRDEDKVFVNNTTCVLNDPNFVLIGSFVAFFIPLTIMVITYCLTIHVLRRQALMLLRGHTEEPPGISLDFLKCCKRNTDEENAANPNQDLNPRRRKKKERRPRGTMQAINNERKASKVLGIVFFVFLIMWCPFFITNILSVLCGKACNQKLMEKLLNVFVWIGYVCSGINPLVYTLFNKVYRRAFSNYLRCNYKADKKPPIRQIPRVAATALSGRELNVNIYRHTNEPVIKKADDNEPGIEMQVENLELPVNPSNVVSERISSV
Method: as §2, §4, §3

SMILES | melting point | IC50 (5-HT1A receptor) | IC50 (α1 receptor) | IC50 (5-HT2C receptor) | minimal effective dose (Male Wistar rats) | MED (Male Sprague-Dawley rats) | Effect (%) (Male Mongolian gerbils) | CA1 cell loss (score) (Male Mongolian gerbils) | dopamine release in the internal ear [1]
CCC1(CCCCN2CCN(c3ccc(F)cc3)CC2)C(=O)Nc2ccccc21 (stereo not drawn) [Example 95, 3-Ethyl-3-{4-[4-(4-fluorophenyl)-piperazin-1-yl]-butyl}-1,3-dihydro-2H-indol-2-one] | 118 to 119 °C | > 300 nM | – | – | 10 mg/kg | 0.1 mg/kg p.o. | – | – | –
CCC1(CCCCN2CCN(c3cccc(Cl)c3)CC2)C(=O)Nc2ccc(F)cc21 (stereo not drawn) [Example 85, 3-{4-[4-(3-Chlorophenyl)-piperazin-1-yl]-butyl}-3-ethyl-5-fluoro-1,3-dihydro-2H-indol-2-one mono-hydrochloride] | – | – | – | – | 5 mg/kg | 0.1 mg/kg p.o. | −46% | 2.70* score | –
CCC1(CCCCN2CCN(c3ccc(Cl)cc3)CC2)C(=O)Nc2c(Cl)cc(Cl)cc21 (stereo not drawn) [Example 87, 5,7-Dichloro-3-{4-[4-(4-chlorophenyl)-piperazin-1-yl]-butyl}-3-ethyl-1,3-dihydro-2H-indol-2-one] | 152 to 154 °C | > 400 nM | – | – | 5 mg/kg | 0.3 mg/kg p.o. | – | – | –

More lines, main results first:

melting point | IC50 (5-HT1A receptor) | IC50 (α1 receptor) | IC50 (5-HT2C receptor) | SMILES | minimal effective dose (Male Wistar rats) | MED (Male Sprague-Dawley rats) | Effect (%) (Male Mongolian gerbils) | CA1 cell loss (score) (Male Mongolian gerbils) | dopamine release in the internal ear [1]
145 to 146 °C | – | – | – | CCC1(CCCCN2CCN(c3ccc(Cl)cc3)CC2)C(=O)Nc2ccccc21 (stereo not drawn) [Example 76, 3-{4-[4-(4-Chlorophenyl)-piperazin-1-yl]-butyl}-3-ethyl-1,3-dihydro-2H-indol-2-one] | 10 mg/kg | – | −52% | 2.40* score | the release stabilized at a significantly higher level
142 to 144 °C | > 200 nM | < 100 nM | < 100 nM | CCC1(CCCCN2CCN(c3cccc(Cl)c3)CC2)C(=O)Nc2ccc(C)cc21 (stereo not drawn) [Example 78, 3-{4-[4-(3-Chlorophenyl)-piperazin-1-yl]-butyl}-3-ethyl-5-methyl-1,3-dihydro-2H-indol-2-one] | – | – | – | – | –
